Results published in PMC7419507, “In vitro Cas9-assisted editing of modular polyketide synthase genes to produce desired natural product derivatives” (Nature Communications, 2020).
Where “and” joins values, the source holds several entries; their conditions need not be identical. Identical values can stand only once.

Tests used:
FKBP12 and mTOR = target: T1, FKBP12 and mTOR (Homo sapiens, UniProt P42345+P62942); assay: Fluoppi analysis: induction of FKBP12-mTOR complex formation in transfected HeLa cells; format: cell-based; conditions: for Foci intensity: raw data, one replicate per line
T1 construct: host or cells: HeLa cells
T1 sequence (P42345 2025-2114 limits assumed): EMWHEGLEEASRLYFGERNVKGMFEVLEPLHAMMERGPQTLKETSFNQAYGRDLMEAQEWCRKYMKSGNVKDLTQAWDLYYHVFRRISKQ
T1 sequence (P62942 whole entry): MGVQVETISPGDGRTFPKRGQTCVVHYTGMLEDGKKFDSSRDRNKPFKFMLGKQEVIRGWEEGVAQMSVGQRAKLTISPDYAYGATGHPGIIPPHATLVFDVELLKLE
In short: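 HeLa cells co-transfected with phAG-mTOR and pAsh-FKBP12, seeded 3000 cells/well, then compound-treated 1 h after 24 h at 37 °C. Fixed, Hoechst-stained, imaged by high-content microscopy; foci fluorescence normalized to total cell fluorescence, EC50 computed.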

[1] = Cytotoxicity assay (CellTiter-Glo, 72 h), SKOV-3; format: cell-based, human; conditions: human, raw replicate data, read-out: SKOV3 viability (%)
In short: (§1)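 Luminescent ATP read-out (CellTiter-Glo) quantified surviving cells after a 72 h incubation with 2-fold diluted compounds in 0.5% DMSO, added 4 h post-seeding at 1000 cells/well.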

[2] = test system: human ovarian adenocarcinoma SKOV-3 cells; assay: Cytotoxicity assay (CellTiter-Glo, 72 h), SKOV-3; format: cell-based; conditions: raw replicate data
In short: as §1

[3] = Cytotoxicity assay (CellTiter-Glo, 72 h), MESO-1; format: cell-based; conditions: human, MESO-1 malignant pleural mesothelioma cells, raw replicate data, read-out: MESO1 viability (%)
In short: as §1

[4] = test system: malignant pleural mesothelioma MESO-1 cells; assay: Cytotoxicity assay (CellTiter-Glo, 72 h), MESO-1; format: cell-based; conditions: raw replicate data
In short: as §1

[5] = test system: Jurkat, SKOV-3 and MESO-1 cells; assay: Cytotoxicity assay, statements for all tested cell lines together; format: cell-based; conditions: Jurkat, SKOV-3 and MESO-1 cells, 72 h
In short: as §1

Structure (SMILES): CO[C@@H]1/C=C/C=C/[C@@H](C)C[C@@H](C)C(=O)C[C@H](O)/C(C)=C/[C@@H](C)C(=O)C[C@@H]([C@H](C)C[C@@H]2CC[C@@H](O)[C@H](OC)C2)OC(=O)[C@@H]2CCCCN2C(=O)C(=O)[C@]2(O)O[C@@H](CC[C@H]2C)C1 [Compound 9]
- PPI-inducing (binding enhancing) activity between FKBP12 and mTOR compared with rapamycin (1), in words (FKBP12 and mTOR; Fluoppi): relatively weaker activities
- EC50 (FKBP12 and mTOR; Fluoppi, HeLa cells, 1 h treatment, three independent biological replicates, read-out: EC50, induction of the formation of FKBP-mTOR complex): 34 nM
- Foci intensity (FKBP12 and mTOR; conc 9.53674e-5 uM): 0.01796 and 0.01734 and 0.0265
- Foci intensity (FKBP12 and mTOR; conc 0.000190735 uM): 0.007038 and 0.008763 and 0.03506
- Foci intensity (FKBP12 and mTOR; conc 0.00038147 uM): 0.01287 and 0.02231 and 0.02044
- Foci intensity (FKBP12 and mTOR; conc 0.000762939 uM): 0.01526 and 0.03513 and 0.01148
- Foci intensity (FKBP12 and mTOR; conc 0.00152588 uM): 0.01977 and 0.009687 and 0.01946
- Foci intensity (FKBP12 and mTOR; conc 0.00305176 uM): 0.01393 and 0.02436 and 0.01751
- Foci intensity (FKBP12 and mTOR; conc 0.00610352 uM): 0.02196 and 0.02086 and 0.01607
- Foci intensity (FKBP12 and mTOR; conc 0.012207 uM): 0.03665 and 0.02818 and 0.0403
- Foci intensity (FKBP12 and mTOR; conc 0.0244141 uM): 0.1568 and 0.166 and 0.1355
- Foci intensity (FKBP12 and mTOR; conc 0.0488281 uM): 0.2266 and 0.245 and 0.2523
- Foci intensity (FKBP12 and mTOR; conc 0.0976562 uM): 0.282 and 0.2404 and 0.219
- Foci intensity (FKBP12 and mTOR; conc 0.195312 uM): 0.2721 and 0.2692 and 0.2013
- Foci intensity (FKBP12 and mTOR; conc 0.390625 uM): 0.3169 and 0.313 and 0.309
- Foci intensity (FKBP12 and mTOR; conc 0.78125 uM): 0.3134 and 0.2906 and 0.2987
- Foci intensity (FKBP12 and mTOR; conc 1.5625 uM): 0.3134 and 0.3737 and 0.3166
- Foci intensity (FKBP12 and mTOR; conc 3.125 uM): 0.3491 and 0.3731 and 0.3792
- Foci intensity (FKBP12 and mTOR; conc 6.25 uM): 0.279 and 0.3226 and 0.3138
- Foci intensity (FKBP12 and mTOR; conc 12.5 uM): 0.3645 and 0.3352 and 0.3161
- Foci intensity (FKBP12 and mTOR; conc 25 uM): 0.2867 and 0.3845 and 0.2898
- Foci intensity (FKBP12 and mTOR; conc 50 uM): 0.3496 and 0.3134 and 0.3176
- viability at 72 h, 9.53674e-05 uM ([1]; SKOV-3 cells (ovarian adenocarcinoma), conc 9.53674e-5 uM): 103%
- viability at 72 h, 0.000190735 uM ([1]; SKOV-3 cells (ovarian adenocarcinoma), conc 0.000190735 uM): 105%
- viability at 72 h, 0.00038147 uM ([1]; SKOV-3 cells (ovarian adenocarcinoma), conc 0.00038147 uM): 97.1%
- viability at 72 h, 0.000762939 uM ([1]; SKOV-3 cells (ovarian adenocarcinoma), conc 0.000762939 uM): 101%
- viability at 72 h, 0.00152588 uM ([1]; SKOV-3 cells (ovarian adenocarcinoma), conc 0.00152588 uM): 102%
- viability at 72 h, 0.00305176 uM ([1]; SKOV-3 cells (ovarian adenocarcinoma), conc 0.00305176 uM): 97.4%
- viability at 72 h, 0.00610352 uM ([1]; SKOV-3 cells (ovarian adenocarcinoma), conc 0.00610352 uM): 105%
- viability at 72 h, 0.012207 uM ([1]; SKOV-3 cells (ovarian adenocarcinoma), conc 0.012207 uM): 99.1%
- viability at 72 h, 0.0244141 uM ([1]; SKOV-3 cells (ovarian adenocarcinoma), conc 0.0244141 uM): 97.2%
- viability at 72 h, 0.0488281 uM ([1]; SKOV-3 cells (ovarian adenocarcinoma), conc 0.0488281 uM): 90.5%
- viability at 72 h, 0.0976562 uM ([1]; SKOV-3 cells (ovarian adenocarcinoma), conc 0.0976562 uM): 92.1%
- viability at 72 h, 0.195312 uM ([1]; SKOV-3 cells (ovarian adenocarcinoma), conc 0.195312 uM): 75%
- viability at 72 h, 0.390625 uM ([1]; SKOV-3 cells (ovarian adenocarcinoma), conc 0.390625 uM): 80.5%
- viability at 72 h, 12.5 uM ([1]; SKOV-3 cells (ovarian adenocarcinoma), conc 12.5 uM): 60.9%
- viability at 72 h, 25 uM ([1]; SKOV-3 cells (ovarian adenocarcinoma), conc 25 uM): 70.4%
- viability at 72 h, 50 uM ([1]; SKOV-3 cells (ovarian adenocarcinoma), conc 50 uM): 52.8%
- viability at 72 h, 0.78125 uM ([1]; SKOV-3 ovarian adenocarcinoma cells, conc 0.78125 uM): 70.1%
- viability at 72 h, 1.5625 uM ([1]; SKOV-3 ovarian adenocarcinoma cells, conc 1.5625 uM): 73.8%
- viability at 72 h, 3.125 uM ([1]; SKOV-3 ovarian adenocarcinoma cells, conc 3.125 uM): 65.5%
- viability at 72 h, 6.25 uM ([1]; SKOV-3 ovarian adenocarcinoma cells, conc 6.25 uM): 70.2%
- SKOV3 viability (%) ([2]; conc 9.53674e-5 uM): 105.9% and 100.3%
- SKOV3 viability (%) ([2]; conc 0.000190735 uM): 101.8% and 104.0%
- SKOV3 viability (%) ([2]; conc 0.00038147 uM): 103.8%
- SKOV3 viability (%) ([2]; conc 0.000762939 uM): 99.7% and 104.2%
- SKOV3 viability (%) ([2]; conc 0.00152588 uM): 108.5% and 105.8%
- SKOV3 viability (%) ([2]; conc 0.00305176 uM): 98.1%
- SKOV3 viability (%) ([2]; conc 0.00610352 uM): 101.6% and 106.7%
- SKOV3 viability (%) ([2]; conc 0.012207 uM): 93.5% and 95.1%
- SKOV3 viability (%) ([2]; conc 0.0244141 uM): 95.8% and 102.2%
- SKOV3 viability (%) ([2]; conc 0.0488281 uM): 93.6% and 92.4%
- SKOV3 viability (%) ([2]; conc 0.0976562 uM): 93.2% and 87.5%
- SKOV3 viability (%) ([2]; conc 0.195312 uM): 79.8% and 81.0%
- SKOV3 viability (%) ([2]; conc 0.390625 uM): 82.0% and 78.5%
- SKOV3 viability (%) ([2]; conc 0.78125 uM): 67.6% and 71.1%
- SKOV3 viability (%) ([2]; conc 1.5625 uM): 76.5% and 72.9%
- SKOV3 viability (%) ([2]; conc 3.125 uM): 73.0% and 75.2%
- SKOV3 viability (%) ([2]; conc 6.25 uM): 70.8% and 73.4%
- SKOV3 viability (%) ([2]; conc 12.5 uM): 62.7% and 63.5%
- SKOV3 viability (%) ([2]; conc 25 uM): 72.9%
- SKOV3 viability (%) ([2]; conc 50 uM): 57.2% and 56.0%
- viability at 72 h, 9.53674e-05 uM ([3]; conc 9.53674e-5 uM): 101%
- viability at 72 h, 0.000190735 uM ([3]; conc 0.000190735 uM): 93.5%
- viability at 72 h, 0.00038147 uM ([3]; conc 0.00038147 uM): 95%
- viability at 72 h, 0.000762939 uM ([3]; conc 0.000762939 uM): 93.4%
- viability at 72 h, 0.00152588 uM ([3]; conc 0.00152588 uM): 100%
- viability at 72 h, 0.00305176 uM ([3]; conc 0.00305176 uM): 92.4%
- viability at 72 h, 0.00610352 uM ([3]; conc 0.00610352 uM): 95.6%
- viability at 72 h, 0.012207 uM ([3]; conc 0.012207 uM): 89.8%
- viability at 72 h, 0.0244141 uM ([3]; conc 0.0244141 uM): 91%
- viability at 72 h, 0.0488281 uM ([3]; conc 0.0488281 uM): 82.4%
- viability at 72 h, 0.0976562 uM ([3]; conc 0.0976562 uM): 85.7%
- viability at 72 h, 0.195312 uM ([3]; conc 0.195312 uM): 74.8%
- viability at 72 h, 0.390625 uM ([3]; conc 0.390625 uM): 75.8%
- viability at 72 h, 0.78125 uM ([3]; conc 0.78125 uM): 66.3%
- viability at 72 h, 1.5625 uM ([3]; conc 1.5625 uM): 71.8%
- viability at 72 h, 3.125 uM ([3]; conc 3.125 uM): 65.2%
- viability at 72 h, 6.25 uM ([3]; conc 6.25 uM): 69.4%
- viability at 72 h, 12.5 uM ([3]; conc 12.5 uM): 63.3%
- viability at 72 h, 25 uM ([3]; conc 25 uM): 63.9%
- viability at 72 h, 50 uM ([3]; conc 50 uM): 53%
- MESO1 viability (%) ([4]; conc 9.53674e-5 uM): 98.3% and 100.4%
- MESO1 viability (%) ([4]; conc 0.000190735 uM): 90.7% and 98.1%
- MESO1 viability (%) ([4]; conc 0.00038147 uM): 97.4% and 97.9%
- MESO1 viability (%) ([4]; conc 0.000762939 uM): 94.8% and 94.3%
- MESO1 viability (%) ([4]; conc 0.00152588 uM): 99.1% and 102.8%
- MESO1 viability (%) ([4]; conc 0.00305176 uM): 92.2% and 94.8%
- MESO1 viability (%) ([4]; conc 0.00610352 uM): 96.7% and 92.3%
- MESO1 viability (%) ([4]; conc 0.012207 uM): 91.8%
- MESO1 viability (%) ([4]; conc 0.0244141 uM): 99.0% and 94.1%
- MESO1 viability (%) ([4]; conc 0.0488281 uM): 84.2% and 90.6%
- MESO1 viability (%) ([4]; conc 0.0976562 uM): 83.8% and 83.9%
- MESO1 viability (%) ([4]; conc 0.195312 uM): 74.7% and 76.1%
- MESO1 viability (%) ([4]; conc 0.390625 uM): 72.2% and 72.1%
- MESO1 viability (%) ([4]; conc 0.78125 uM): 64.8% and 71.9%
- MESO1 viability (%) ([4]; conc 1.5625 uM): 69.3% and 70.3%
- MESO1 viability (%) ([4]; conc 3.125 uM): 69.9%
- MESO1 viability (%) ([4]; conc 6.25 uM): 70.9% and 68.1%
- MESO1 viability (%) ([4]; conc 12.5 uM): 63.1% and 61.3%
- MESO1 viability (%) ([4]; conc 25 uM): 65.5% and 63.8%
- MESO1 viability (%) ([4]; conc 50 uM): 61.4% and 51.1%
- Effect on cell viability, in words [5]: slightly suppressed the cell viabilities
